Here are results for 16 molecules from patent US8415351B2 (priority 2007, dated 2013).

The subject of assay [1] is genotype 1b-Con1 subgenomic replicon cell line. As to the kind of experiment: microbe, parasite or virus in culture. The settings on record: Hepatitis C virus, read-out: EC50 1b. In kind it is cell-based, HCV.
In assay [2] the test system is genotype 1a-H77 subgenomic replicon cell line. As to the kind of experiment: microbe, parasite or virus in culture. The format is cell-based, HCV. Particulars: Hepatitis C virus, read-out: EC50 1a.
Assay [3] addresses T1, HCV polymerase 1B (Δ21 NS5B, BK) (Hepatitis C virus genotype 1b, UniProt P26663).
T1 construct: 20 to 50 nM Δ21 NS5B
As to the kind of experiment: biochemical. In a few lines:
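Δ21 NS5B (genotype 1b, BK […]) preincubated 15 min RT with inhibitor, 2 mM MnCl2, pH 7.4, 60–125 μM GTP; started with 20 μM CTP/ATP, 1 μM 3H-UTP, 5 nM template RNA, run 2–4 h RT. Spermine-precipitated RNA filter-captured, scintillation counted; IC50 from tight-binding (Morrison) fit.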

Assay [4] addresses T2, HCV polymerase 1A (Δ21 NS5B, H77) (Hepatitis C virus genotype 1a, UniProt P27958).
T2 construct: 20 to 50 nM Δ21 NS5B
As to the kind of experiment: biochemical. Particulars: IC50 1a. The procedure, abridged:
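Radiometric assay with Δ21 NS5B (H77): 20 μM CTP, 20 μM ATP, 1 μM ^3H-UTP, 5 nM template RNA, 2–4 h at room temperature. RNA precipitated with spermine, filter-captured and counted. IC50 from non-linear fit of retained cpm vs inhibitor concentration (tight-binding equation).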

Each structure is given as a SMILES string.

A word on the EC50: it is the concentration needed to bring the measured effect to its halfway point. One may read the IC50 as the midpoint of a concentration-inhibition curve. A higher IC50 goes with weaker potency in that assay.

T1 sequence (P26663 2420-2989, stated change not applied): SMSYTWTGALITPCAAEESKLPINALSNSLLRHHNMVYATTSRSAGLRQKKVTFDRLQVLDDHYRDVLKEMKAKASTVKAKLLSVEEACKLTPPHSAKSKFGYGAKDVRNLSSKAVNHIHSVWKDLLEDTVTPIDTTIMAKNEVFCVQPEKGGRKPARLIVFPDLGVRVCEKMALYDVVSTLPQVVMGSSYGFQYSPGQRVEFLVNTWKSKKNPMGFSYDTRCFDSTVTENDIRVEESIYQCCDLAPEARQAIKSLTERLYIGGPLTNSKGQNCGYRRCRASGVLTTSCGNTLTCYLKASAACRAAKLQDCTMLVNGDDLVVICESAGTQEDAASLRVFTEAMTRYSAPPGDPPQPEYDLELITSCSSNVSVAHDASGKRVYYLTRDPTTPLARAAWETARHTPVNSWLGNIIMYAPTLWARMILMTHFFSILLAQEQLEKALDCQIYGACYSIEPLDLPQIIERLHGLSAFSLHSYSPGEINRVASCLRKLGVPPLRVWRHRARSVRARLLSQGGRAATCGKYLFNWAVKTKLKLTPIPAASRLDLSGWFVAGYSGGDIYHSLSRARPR
T2 sequence (P27958 2421-2990, stated change not applied): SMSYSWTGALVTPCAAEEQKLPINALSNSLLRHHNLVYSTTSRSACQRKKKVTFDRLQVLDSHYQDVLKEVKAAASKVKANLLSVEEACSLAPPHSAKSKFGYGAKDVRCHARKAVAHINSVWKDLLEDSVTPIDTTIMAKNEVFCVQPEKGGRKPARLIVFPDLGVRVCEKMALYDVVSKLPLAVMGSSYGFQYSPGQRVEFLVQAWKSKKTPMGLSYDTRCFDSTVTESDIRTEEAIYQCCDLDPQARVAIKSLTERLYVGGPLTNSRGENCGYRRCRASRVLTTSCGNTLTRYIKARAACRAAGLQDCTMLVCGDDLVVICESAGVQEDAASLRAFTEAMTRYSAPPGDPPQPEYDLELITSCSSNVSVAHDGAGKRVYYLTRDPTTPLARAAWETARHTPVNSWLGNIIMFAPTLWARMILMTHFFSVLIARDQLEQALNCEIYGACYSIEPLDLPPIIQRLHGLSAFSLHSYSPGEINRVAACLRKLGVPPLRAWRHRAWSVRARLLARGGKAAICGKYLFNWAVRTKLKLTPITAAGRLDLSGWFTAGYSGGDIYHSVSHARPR

Turning to `COc1c(C#Cc2cc(F)c(NS(C)(=O)=O)cc2C(F)(F)F)cc(N2CCC(=O)NC2=O)cc1C(C)(C)C` [IA-L2-1.22, N-(4-((3-tert-butyl-5-(2,4-dioxotetrahydropyrimidin-1(2H)-yl)-2-methoxyphenyl)ethynyl)-2-fluoro-5-(trifluoromethyl)phenyl)methanesulfonamide], the EC50 in assay [1] is 10 to 100 nM; in assay [2] it was 100 to 1000 nM. Further, the IC50 in assay [3] and in assay [4] was 10 to 100 nM each time.

As to `COc1cc(NS(C)(=O)=O)ccc1C(=O)Nc1cc(N2CCC(=O)NC2=O)cc(C(C)(C)C)c1OC` [IA-L4-1.11, N-(3-tert-butyl-5-(2,4-dioxotetrahydropyrimidin-1(2H)-yl)-2-methoxyphenyl)-2-methoxy-4-(methylsulfonamido)benzamide], the EC50 in assay [1] is 10 to 100 nM; in assay [2], 100 to 1000 nM. Further, the figures for the IC50 in assay [3] and in assay [4] were 10 to 100 nM and less than 10 nM, respectively.

With `COc1c(C#Cc2ccc(NS(C)(=O)=O)cc2O)cc(-n2ccc(=O)[nH]c2=O)cc1C(C)(C)C` [IB-L2-1.6, N-(4-((3-tert-butyl-5-(2,4-dioxo-3,4-dihydropyrimidin-1(2H)-yl)-2-methoxyphenyl)ethynyl)-3-hydroxyphenyl)fmethanesulfonamide], the EC50 in assay [1] was less than 10 nM; in assay [2], 10 to 100 nM. Moreover, the half-maximal inhibitory concentration (IC50) in assay [3] was 10 to 100 nM; in assay [4], less than 10 nM.

On to `CN(c1ccc(NC(=O)c2cc(N3CCC(=O)NC3=O)cc(C(C)(C)C)c2O)cc1)S(C)(=O)=O` [IA-L3-1.4, 3-tert-butyl-5-(2,4-dioxotetrahydropyrimidin-1(2H)-yl)-2-hydroxy-N-(4-(N-methylmethylsulfonamido)phenyl)benzamide], for which the EC50 in assay [1] and in assay [2] was more than 1000 nM throughout. Further, the IC50 lay within 10 to 100 nM in assay [3] and 100 to 1000 nM in assay [4].

For `COc1c(C#Cc2ccc(NS(C)(=O)=O)c(F)c2)cc(N2CCC(=O)NC2=O)cc1C(C)(C)C` [IA-L2-1.13, N-(4-((3-tert-butyl-5-(2,4-dioxotetrahydropyrimidin-1(2H)-yl)-2-methoxyphenyl)ethynyl)-2-fluorophenyl)methanesulfonamide], the EC50 was in the range of 10 to 100 nM in assay [1] and 100 to 1000 nM in assay [2]. The IC50 in assay [3] and in assay [4] was less than 10 nM in each case.

With `COc1c(/C=C\c2ccc(NS(C)(=O)=O)cc2)cc(N2CCC(=O)NC2=O)cc1C(C)(C)C` [IA-L1-1.10, (Z)-N-(4-(3-tert-butyl-5-(2,4-dioxotetrahydropyrimidin-1(2H)-yl)-2-methoxystyryl)phenyl)methanesulfonamide], the EC50 in assay [1] and in assay [2] was 10 to 100 nM in each case. The IC50 in assay [3] and in assay [4] was 10 to 100 nM each time.

Turning to `COC(=O)NN=C1CCc2cc(-c3cc(-n4ccc(=O)[nH]c4=O)cc(C(C)(C)C)c3OC)ccc21` [IB-L0-2.24, methyl 2-(5-(3-tert-butyl-5-(2,4-dioxo-3,4-dihydropyrimidin-1(2H)-yl)-2-methoxyphenyl)-2,3-dihydro-1H-inden-1-ylidene)hydrazinecarboxylate], the EC50 in assay [1] and in assay [2] was 10 to 100 nM throughout. The IC50 in assay [3] and in assay [4] was 10 to 100 nM each time.

Regarding `COc1c(C#Cc2ccccc2)cc(N2CCC(=O)NC2=O)cc1C(C)(C)C` [IA-L2-1.4, 1-(3-tert-butyl-4-methoxy-5-(phenylethynyl)phenyl)dihydropyrimidine-2,4(1H,3H)-dione], the EC50 in assay [1] and in assay [2] was 100 to 1000 nM throughout. Besides, the IC50 in assay [3] and in assay [4] was 100 to 1000 nM throughout.

`COc1cc(NS(C)(=O)=O)ccc1NC(=O)c1cc(N2CCC(=O)NC2=O)cc(C(C)(C)C)c1OC` [IA-L3-1.85, 3-tert-butyl-5-(2,4-dioxotetrahydropyrimidin-1(2H)-yl)-2-methoxy-N-(2-methoxy-4-(methylsulfonamido)phenyl)benzamide]: the EC50 in assay [1] and in assay [2] was 100 to 1000 nM each time. For the same molecule, the IC50 in assay [3] and in assay [4] was 100 to 1000 nM throughout.

Take `COc1c(-c2cccc(/C=N/NS(C)(=O)=O)c2)cc(N2CCC(=O)NC2=O)cc1C(C)(C)C` [IA-L0-1.7, (E)-N′-((3′-tert-butyl-5′-(2,4-dioxotetrahydropyrimidin-1(2H)-yl)-2′-methoxybiphenyl-3-yl)methylene)methanesulfonohydrazide]: the EC50 in assay [1] and in assay [2] was more than 1000 nM in each case. The IC50 in assay [3] was 100 to 1000 nM; in assay [4] it was more than 1000 nM.

As to `COc1c(-c2ccc3c(c2)CCC3CNS(C)(=O)=O)cc(-n2ccc(=O)[nH]c2=O)cc1C(C)(C)C` (stereo not shown) [IB-L0-2.17, N-((5-(3-tert-butyl-5-(2,4-dioxo-3,4-dihydropyrimidin-1(2H)-yl)-2-methoxyphenyl)-2,3-dihydro-1H-inden-1-yl)methyl)methanesulfonamide], the results for the concentration giving a half-maximal response (EC50) in assay [1] and in assay [2] were less than 10 nM and 10 to 100 nM, respectively. Further, the IC50 in assay [3] is 10 to 100 nM; in assay [4], less than 10 nM.

Turning to `CC(C)(C)c1cc(C(=O)Nc2ccc(NS(C)(=O)=O)cc2)cc(N2CCC(=O)NC2=O)c1` [IA-L3-1.105, 3-tert-butyl-5-(2,4-dioxotetrahydropyrimidin-1(2H)-yl)-N-(4-(methylsulfonamido)phenyl)benzamide], the EC50 in assay [1] and in assay [2] was more than 1000 nM throughout. The IC50 was in the range of 10 to 100 nM in assay [3] and 100 to 1000 nM in assay [4].

As for `COc1c(C(=O)Nc2ccc(NS(=O)(=O)CC(F)(F)F)cc2)cc(N2CCC(=O)NC2=O)cc1C(C)(C)C` [IA-L3-1.55, 3-tert-butyl-5-(2,4-dioxotetrahydropyrimidin-1(2H)-yl)-2-methoxy-N-(4-(2,2,2-trifluoro-ethylsulfonamido)phenyl)benzamide], the EC50 in assay [1] and in assay [2] was more than 1000 nM throughout. Further, the 50% inhibitory concentration (IC50) in assay [3] and in assay [4] was 100 to 1000 nM each time.

In the case of `COc1c(C(=O)Nc2cc(CN(C)S(C)(=O)=O)cs2)cc(N2CCC(=O)NC2=O)cc1C(C)(C)C` [IA-L3-1.97, 3-tert-butyl-5-(2,4-dioxotetrahydropyrimidin-1(2H)-yl)-2-methoxy-N-(4-((N-methylmethylsulfonamido)methyl)thiophen-2-yl)benzamide], the EC50 in assay [1] and in assay [2] was more than 1000 nM in each case. For the same molecule, the half-maximal inhibitory concentration (IC50) in assay [3] and in assay [4] was more than 1000 nM each time.

Turning to `COc1c(-c2ccc(CCNS(C)(=O)=O)cc2)cc(-n2ccc(=O)[nH]c2=O)cc1C(C)(C)C` [IB-L0-1.4, N-(2-(3′-tert-butyl-5′-(2,4-dioxo-3,4-dihydropyrimidin-1(2H)-yl)-2′-methoxybiphenyl-4-yl)ethyl)methanesulfonamide], the EC50 was in the range of 10 to 100 nM in assay [1] and 100 to 1000 nM in assay [2]. Moreover, the IC50 in assay [3] and in assay [4] was 10 to 100 nM throughout.

With `COc1c(C(=O)Cc2ccc(NS(C)(=O)=O)cc2)cc(N2CCC(=O)NC2=O)cc1C(C)(C)C` [IA-L11-1.1, N-(4-(2-(3-tert-butyl-5-(2,4-dioxotetrahydropyrimidin-1(2H)-yl)-2-methoxyphenyl)-2-oxoethyl)phenyl)methanesulfonamide], the EC50 lay in the range of 10 to 100 nM in assay [1] and 100 to 1000 nM in assay [2]. Besides, the IC50 in assay [3] and in assay [4] was 10 to 100 nM throughout.
